Reference: PMC2918522, “Characterization of the first beta-class carbonic anhydrase from an arthropod (Drosophila melanogaster) and phylogenetic analysis of beta-class carbonic anhydrases in invertebrates” (BMC Biochemistry, 2010)

T1: DmBCA (Drosophila melanogaster, UniProt Q9VHJ5)
T1 construct: gene CAHbeta; C-terminal thrombin site and His6; baculovirus/Sf9, purified from culture supernatant; thrombin treatment to remove tag; 28/27 kDa before/after thrombin; dimer
T1 sequence (Q9VHJ5 1-255): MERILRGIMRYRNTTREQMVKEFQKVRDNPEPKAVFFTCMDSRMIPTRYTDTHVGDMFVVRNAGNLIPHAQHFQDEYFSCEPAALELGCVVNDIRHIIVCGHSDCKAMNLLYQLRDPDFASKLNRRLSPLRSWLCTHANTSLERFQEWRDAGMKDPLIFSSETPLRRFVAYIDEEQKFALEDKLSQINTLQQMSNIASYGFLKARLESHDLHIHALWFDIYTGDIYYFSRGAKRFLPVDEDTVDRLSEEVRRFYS

B1: Drosophila melanogaster β-carbonic anhydrase (DmBCA) (enzyme, UniProt Q9VHJ5 1-255, looked up)
chain: T1 sequence (Q9VHJ5 1-255)
notes: cDNA from S2 cells; A thrombin cleavage site stands between DmBCA and the C-terminal His6 (primer R4 encodes LVPRGS-HHHHHH after the last residue); also called D. melanogaster β-CA; Drosophila β-CA; source: Sf9 insect cells (baculovirus), purified from the culture supernatant (Probond nickel-chelating resin)

Target: the molecule itself
Experiment: dynamic light scattering + SEC; DLS (Zetasizer ZS): proteins exchanged to 50 mM Na2HPO4 pH 7.0, 100 mM NaCl, temperature scan 4-50°C, mass estimated from the hydrodynamic diameter with a globular protein standard curve; analytical gel filtration: Superdex200 10/300GL, 50 mM Na2HPO4, 650 mM NaCl pH 7.0, 20-30 μg protein per run

Molecule	stoichiometry N
B1	2

target: T1, DmBCA; experiment: stopped-flow CO2 hydration assay; type: biochemical

Molecule	Ki
O=C(O)O [HCO3^-]	26900 µM
N#CS [SCN^-]	1280 µM
O=S(O)O [HSO3^-]	1290 µM
Cl [Cl^-]	970 µM
S [HS^-]	1010 µM
O=[N+]([O-])O [NO3^-]	43700 µM
Br [Br^-]	1040 µM
OB(O)c1ccccc1 [Ph-B(OH)2]	22400 µM
NS(=O)(=O)O [H2NSO3H]	2450 µM
I [I^-]	1180 µM
O=S(=O)(O)O [SO4^2-]	1360 µM
O=NO [NO2^-]	28600 µM
F [F^-]	800 µM
NS(N)(=O)=O [H2NSO2NH2]	150 µM
N#CO [CNO^-]	730 µM
